The values below are quoted from earlier work in patent publication US11253534B2, “Method of preventing COVID-19 infection” (priority 2020, dated 2022).

SMILES strings stand for the structures.

The conditions of the data set: in vivo.

For `CCN(CCO)CCCC(C)Nc1ccnc2cc(Cl)ccc12` (stereo not shown) [hydroxychloroquine], the half-life entry is “up to 32 days”.
